In US20210147482A1, “PEPTIDE FOR INHIBITING BONE RESORPTION” (NIBEC CO., LTD., priority 2017, published 2021):

How the values were obtained:
[1] = test system: mature osteoclasts; experiment: Destruction of podosome belt of differentiated mature osteoclasts; type: cell-based, mouse; settings: 20 μg/ml HBD3-C15 added on day 4 of differentiation, cultured 1 day; FIG. 4
Method: Thus, in order to determine whether or not HBD3-C15 can inhibit the activity of differentiated mature osteoclasts, mouse-bone-marrow-derived macrophages were treated with 20 ng/ml of M-CSF and 100 ng/ml of RANKL on a cover glass for 4 days to induce differentiation of osteoclasts. The osteoclasts were treated with 20 μg/ml of HBD3-C15 on day 4 of differentiation and cultured for 1 day. The cells were fixed with 4% paraformaldehyde, stained with Alexa-Fluor-488-conjugated phalloidin, washed and nuclei-stained with Hoechst 33258. The degree of staining of cells was observed by confocal microscopy.

[2] = test system: osteoclasts from mouse-derived bone marrow macrophages; experiment: Podosome belt formation in osteoclasts (confocal microscopy); type: cell-based; settings: 20 ng/ml M-CSF, 100 ng/ml RANKL, 20 μg/ml HBD3-C15, 5 days; FIG. 3
Method: Thus, in order to determine whether or not the reduction of osteoclast differentiation by HBD3-C15 is affected by podosome belt formation in osteoclasts, mouse-derived bone marrow macrophages were differentiated on a cover glass. Mouse-bone-marrow-derived macrophages were treated with 20 ng/ml of M-CSF and 100 ng/ml of RANKL, or 20 ng/ml of M-CSF, 100 ng/ml of RANKL and 20 μg/ml of HBD3-C15, and cultured for 5 days. The cells were fixed with 4% paraformaldehyde, stained with Alexa-Fluor-488-conjugated-phalloidin, and washed and stained with Hoechst 33258. The degree of staining of cells was observed by confocal microscopy.

[3] = test system: osteoblast cell line MC3T3-E1 (Subclone 4); experiment: Osteoblast differentiation by alkaline phosphate staining; type: cell-based; settings: differentiation medium (50 μg/ml ascorbic acid, 10 mM β-glycerophosphate) + 20 μg/ml HBD3-C15, 6 days; FIG. 7
Method: In order to evaluate the effect of HBD3-C15 on differentiation of osteoblasts, which are bone formation cells, the osteoblast cell line MC3T3-E1 (Subclone 4) was used. The cells were prepared by culturing in alpha-MEM medium without ascorbic acid containing 10% fetal bovine serum, 50 unit/ml of penicillin, and 50 μg/ml of streptomycin at 37° C. and 100% humidity while continuously supplying 5% carbon dioxide.
MC3T3-E1 cells were seeded at a density of 25,000 cells/well into a 48-well plate, then treated with a differentiation medium alone supplemented with 50 μg/ml of ascorbic acid and 10 mM of β-glycerophosphate, or in combination with 20 μg/ml of HBD3-C15, and cultured for 6 days. Alkaline phosphate staining was performed to determine the differentiation of osteoblasts and images were obtained through a camera mounted on a microscope.

[4] = test system: mouse-bone-marrow-derived macrophages; experiment: Osteoclast differentiation by TRAP staining; type: cell-based; settings: 100 ng/ml RANKL + 0.2, 2, or 20 μg/ml HBD3-C15, 3 days
Method: In order to evaluate the effect of HBD3-C15, a peptide fragment derived from human beta-defensin-3 (HBD3) on the differentiation of osteoclasts, which are bone destruction cells, mouse-bone-marrow-derived macrophages were used. The bone marrow-derived macrophages that were used were prepared by isolating bone marrow cells from the long bone of mice and culturing the same at 100% humidity and 37° C. in an alpha MEM containing 10% fetal bovine serum, 50 unit/ml of penicillin and 50 μg/ml of streptomycin along with 20 ng/ml of M-CSF for 5 days, while continuously feeding 5% carbon dioxide.
Mouse-bone-marrow-derived macrophages were seeded at 20,000 cells/well on a 96-well plate, treated with 100 ng/ml of receptor activator of nuclear factor-kappaB ligand (RANKL) alone, or a combination of 100 ng/ml of RANKL and 0.2, 2, or 20 μg/ml of HBD3-C15, and cultured for 3 days. In order to determine the degree of differentiation of osteoclasts, tartrate-resistant acid phosphatase (TRAP) staining was performed, and cells with three or more nuclei having osteoclast activity were counted and statistically analyzed.

[5] = test system: NFATc1; experiment: NFATc1 protein expression by immunoblotting; type: cell-based, mouse; settings: treated with HBD3-C15 for 48 hours; FIG. 1D
Method: (§1) In addition, in order to determine changes of the protein expression of c-Fos and NFATc1, the proteins were extracted from mouse-bone-marrow-derived macrophages, treated with HBD3-C15 for 48 hours, and 40 μg of the protein was transferred to the PVDF membrane through an SDS-PAGE gel. Then, immunoblotting was performed using c-Fos and NFATc1-specific antibodies.

[6] = test system: osteoclasts cultured from mouse-bone-marrow-derived macrophages on dentin discs; experiment: Bone resorption activity of osteoclasts on dentin discs; type: cell-based; settings: 20 ng/ml M-CSF, 100 ng/ml RANKL, 20 μg/ml HBD3-C15, 6 days, FIG. 2
Method: The osteoclasts were cultured in mouse-bone-marrow-derived macrophages on dentin discs based on the fact that osteoclasts perform all functions thereof in environments enabling bone absorption. Mouse-bone-marrow-derived macrophages were treated with 20 ng/ml of M-CSF and 100 ng/ml of RANKL, or with 20 ng/ml of M-CSF, 100 ng/ml of RANKL and 20 μg/ml of HBD3-C15, and then cultured for 6 days. The bone resorption area and bone resorption depth were imaged by confocal microscopy and total bone resorption depth and bone resorption area were measured by LSM Image Browser software.

[7] = test system: mouse skulls; experiment: Calvarial implantation model, bone resorption by RANKL; type: in vivo; settings: 20 μg RANKL and 200 μg HBD3-C15 in collagen sheet, day 7
Method: In order to determine the inhibition of bone destruction by HBD3-C15 in vivo, a calvarial implantation model, a typical bone loss model, was used.
20 μg of RANKL, a key cytokine that can destroy bones, was soaked in a collagen sheet and was transplanted alone into mouse skulls, or 20 μg of RANKL and 200 μg of HBD3-C15 were soaked in a collagen sheet and then transplanted into mouse skulls. The mice were sacrificed on day 7 of transplantation, and the degree of skull bone destruction was analyzed by scanning via micro-CT.
After micro-CT analysis, TRAP staining was performed to determine the number of osteoclasts in the skull.

[8] = test system: c-Fos; experiment: c-Fos RNA expression by RT-PCR; type: cell-based, mouse; settings: 20 ng/ml M-CSF, 100 ng/ml RANKL, 20 μg/ml HBD3-C15, 24 hours; FIG. 1D
Method: (§2) In addition, expression of c-fos and NFATc1, which are well-known key transcription factors for osteoclast differentiation, was determined at protein and RNA levels.
(§3) Mouse-bone-marrow-derived macrophages were treated with 20 ng/ml of M-CSF and 100 ng/ml of RANKL, or 20 ng/ml of M-CSF, 100 ng/ml of RANKL and 20 μg/ml of HBD3-C15 for 24 hours, RNA was extracted, and the quantified RNA and random primers were reacted at 70° C. for 5 minutes and reacted in the presence of a reverse transcriptase, reverse transcription buffer and dNTPs at 42° C. for 1 hour. The result was amplified by 35 cycles using the synthesized cDNA as a template and using c-Fos and NFATc1-specific oligos as primers in a polymerase chain reaction machine.

[9] = test system: c-Fos; experiment: c-Fos protein expression by immunoblotting; type: cell-based, mouse; settings: treated with HBD3-C15 for 48 hours; FIG. 1D
Method: as §1

[10] = test system: mouse skulls; experiment: Mouse skull resorption induced by A.a.LPS; type: in vivo; settings: transplantation of HBD3-C15; FIG. 6
Method: In addition, lipopolysaccharide of Aggregatibacter actinomycetemcomitans (A.a.LPS), a bacterium known to cause aggressive periodontitis accompanied with rapid alveolar bone loss, induced resorption of mouse skulls, and whether such resorption can be inhibited by HBD3-C15 was determined

[11] = test system: NFATc1; experiment: NFATc1 RNA expression by RT-PCR; type: cell-based, mouse; settings: 20 ng/ml M-CSF, 100 ng/ml RANKL, 20 μg/ml HBD3-C15, 24 hours; FIG. 1D
Method: as §2, §3

Substance: G-K-C-S-T-R-G-R-K-C-C-R-R-K-K [HBD3-C15]
- podosome belt of differentiated mature osteoclasts [1]: incomplete podosome belt
- podosome belt formation by RANKL [2]: no clear podosome belt
- degree of differentiation of osteoblasts [3]: no difference in the degree of differentiation
- number of TRAP positive cells increased due to RANKL ([4]; FIG. 1A): decreased in a concentration-dependent manner
- number of cells with three or more nuclei having osteoclast activity ([4]; FIG. 1B): statistically significantly decreased
- number of cells having ten or more nuclei ([4]; FIG. 1C): significantly decreased
- NFATc1 protein expression attributable to RANKL [5]: inhibited an increase
- increase in bone resorption area attributable to RANKL [6]: significantly reduced
- increase in bone resorption depth attributable to RANKL [6]: significantly reduced
- number of osteoclasts in the skull (TRAP staining) ([7]; FIG. 5C): significantly reduced
- skull absorbed by RANKL (micro-CT) ([7]; FIGS. 5A and 5B): significantly reduced
- expression of c-Fos (RNA) increased by RANKL [8]: reduced
- c-Fos protein expression attributable to RANKL [9]: inhibited an increase
- number of osteoclasts (A.a.LPS model) [10]: decreased
- skull resorption by A.a.LPS [10]: significantly reduced
- expression of NFATc1 (RNA) increased by RANKL [11]: reduced
